Tests used:
Assay type in all cases: cell-based
[1] = tested on: Akt phosphorylation in RAW264.7 cells; test: Western blot, phosphorylation of Akt induced by RANKL; details: 10 ng/ml RANKL for 30 minutes, dose dependent, FIG. 17
Protocol: RANKL can activate PI3K/Akt pathway to maintain the existence and the proliferation of osteoclast-like cells and prevent the apoptosis. The Akt phosphorylation level which is induced by RANKL is examined at different time points. The induced Akt phosphorylation is most apparent when it is induced by 10 ng/ml RANKL for 30 minutes. Therefore, 30 minutes are used to be the time point for inducing Akt phosphoryaltion. […] The proteins were collected by scraping and were centrifuged (13,000 rpm, 4° C., 30 minutes). The supernatant was stored in an eppendorf in −80° C. • c) Concentrations of the proteins were examined by Bio-Red DC Protein Assay. After knowing the concentrations, the proteins were diluted to specific concentrations by adding ddH2O. One forth volume of the diluted proteins of sample buffer was added into the diluted proteins and was put in boiled water for 5 min and then was chilled on ice for 5 minutes. After short time centrifugation, the diluted proteins could be injected into wells of a gel. The gel was run at 100 V for 10 minutes until the proteins were driven to the intersection between a loading gel and a running gel. Then, the voltage was swopped to 200 V for 40 minutes. • d) A PVDF membrane was immersed in Methanol for 2 minutes. After two washes in ddH2O, the membrane was immersed in transfer buffer for 15 minutes. […]

[2] = tested on: p65 in the cell nucleus of RAW264.7 cells; test: Western blot, amount of p65 in nuclei induced by RANKL; details: KMUP-1 in advance 24 hours, RANKL 30 minutes, FIG. 8(B)
Protocol: IκBα which originally binds with NF-κB to inhibit its activity in cytoplasm is stimulated by RANKL to be phosphorylized and be hydrolyzed after separating from NF-κB. Then, the free NF-κB transfers into a cell nucleus to play a role as a transcription factor. According to the experimental result, compared with the control group, in the group induced by RANKL for 30 minutes, the IκBα in the cytoplasm is obviously phosphorylized and hydrolyzed. […] According to the result, KMUP-1 can inhibit NF-κB activation induced by RANKL. Nuclear proteins were extracted according to the instructions of NE-PER kit. 2.5×10^6 cells were plated per well in 24-well plates. […] Subsequently, the cells were added by 5.5 μ[…] and shaken for 5 seconds and then put on ice for 1 minute. After that, the cells were shaken again for 5 seconds and centrifuged (10,000 rpm, 4° C., 5 minutes). Cytoplasm and Nuclei could be separated by this process, and the supernatant was cytoplasmic proteins, and the pallet was nuclei. The supernatant was stored in an eppendorf in -80° C. b) Extraction of Nuclear Proteins The nuclear pallet was added by 500 μl PBS and centrifuged (10,000 rpm, 4° C., 5 minutes), and the supernatant was discarded. The pallet could be washed by this process and prevented contamination. […]

[3] = tested on: MMP-2 enzyme activity of RAW264.7 cells; test: Gelatin zymography, enzyme activity of MMP-2 induced by RANKL; details: 10 μM, RANKL 24 hours, FIG. 20
Protocol: KMUP-1 influences there major up-stream signal transduction pathways which are related to RANK/RANKL. Western blot is used to estimate the amount of matrix metalloproteinase (MMP)-2 and MMP-9 which are related to the dissolution of osteoclast-like cells, and the enzyme activity of MMP-2 and MMP-9 are estimated via Gelatin Zymography. […] After 24 hours reaction, the reaction fluid was centrifuged (13,000 rpm, 4° C., 20 minutes), and then the supernatant was stored in −80° C. • b) 10% gel preparation. 10 mg gelatin was added by 1 ml ddH2O and then was heated in water bath until the solution was clear. • c) Concentrations of the proteins were examined by Bio-Red DC Protein Assay. After knowing the concentrations, the proteins were diluted to specific concentrations by adding ddH2O. One forth volume of the diluted proteins of sample buffer was added into the diluted proteins. After shaking, the diluted proteins could be added into wells of the gel. Subsequently, 1× running buffer was added with the gel, and then the gel was run at 100 V for 10 minutes until the proteins were driven to the intersection between a loading gel and a running gel. Then, the voltage was swopped to 200 V for 60 minutes. • d) After electrophoresis, the loading gel was discarded, and the left gel was washed by TritonX-100 buffer for 30 minutes in room temperature twice. […]

SMILES: Cn1c(=O)c2c(ncn2CCN2CCN(c3ccccc3Cl)CC2)n(C)c1=O [KMUP-1, 7-[2-[4-(2-Chlorophenyl)piperazin-1-yl]ethyl] theophylline]
- phosphorylation of Akt induced by RANKL [1]: can efficiently inhibit phosphorylation of Akt induced by RANKL
- amount of p65 in the cell nucleus induced by RANKL [2]: has the inhibiting effect on that p65 enters into a cell nucleus
- enzyme activity of MMP-2 induced by RANKL [3]: can reduce the enzyme activity of MMP-2 and MMP-9

— patent US8507506B2, “Theophylline derivative inhibits osteoporosis” (Kaohsiung Medical University, priority 2011, dated 2013)
